In patent US11236083B2, “Compounds and pharmaceutical compositions for modulating SGK activity, and methods thereof” (NEW ERA PHARMA, INC., priority 2016, dated 2022):
Like-named read-outs stand apart in the source and are kept apart here.

Legend:
[1] = target: T1, Sgk2 (Homo sapiens, UniProt Q9HBY8); assay: Enzyme based assay for SGK2 (biotinylated Akt Substrates-2 peptide, Eu3+ Cryptate/XL665 detection); assay type: biochemical
T1 sequence (Q9HBY8 1-367): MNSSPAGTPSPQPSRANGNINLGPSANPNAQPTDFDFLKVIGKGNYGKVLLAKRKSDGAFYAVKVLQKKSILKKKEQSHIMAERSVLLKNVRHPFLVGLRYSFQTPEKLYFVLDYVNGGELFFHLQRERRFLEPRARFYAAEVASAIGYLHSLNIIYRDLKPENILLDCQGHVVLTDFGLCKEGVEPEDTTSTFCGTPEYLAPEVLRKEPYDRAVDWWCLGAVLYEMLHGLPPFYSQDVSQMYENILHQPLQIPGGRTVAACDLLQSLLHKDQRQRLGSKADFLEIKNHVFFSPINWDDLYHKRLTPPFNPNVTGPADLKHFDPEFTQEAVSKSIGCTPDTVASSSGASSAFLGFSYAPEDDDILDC
Procedure: (§1) 1. Enzyme Based Assays for SGK1, SGK2, SGK3, and Akt1
(§2) The kinase enzymatic reaction is carried out with a biotinylated Akt Substrates-2 peptide substrate. The phosphorylated substrate is then detected using a specific anti-phospho peptide antibody which is coupled with Eu^3+ Cryptate and XL665 conjugated with streptavidin.
(§3) Exemplary Assay Conditions
(§4) • Enzyme: ˜0.1 nM • Substrate: 0.2 μM • ATP: 50 μM and 1 mM • Mg^2+: 10 mM • Reaction time: 60 min with 50 μM ATP and 30 min with 1 mM ATP • SA-XL to Biotin: 1:10
(§5) Detailed Steps • 1. prepare the enzyme and substrate solution with the buffer from Cisbio • 2. add the enzyme and substrate solution to the diluted compound plate • 3. transfer 5 μL of compound, enzyme, and substrate mixture to an 384-well assay plate • 4. add 5 μL ATP (with Mg^2+) solution to initiate the reaction • 5. after certain time, add 10 μL of stop solution containing SA-XL and specific antibody • 6. read the plate after 2 h incubation at rt • 7. process the data using prizm software (Exemplary results are shown in FIG. 1.) 2. PK Studies Protocol

[2] = target: T2, Sgk1 (Homo sapiens, UniProt O00141); assay: Enzyme based assay for SGK1 (biotinylated Akt Substrates-2 peptide, Eu3+ Cryptate/XL665 detection); assay type: biochemical
T2 sequence (O00141 1-431): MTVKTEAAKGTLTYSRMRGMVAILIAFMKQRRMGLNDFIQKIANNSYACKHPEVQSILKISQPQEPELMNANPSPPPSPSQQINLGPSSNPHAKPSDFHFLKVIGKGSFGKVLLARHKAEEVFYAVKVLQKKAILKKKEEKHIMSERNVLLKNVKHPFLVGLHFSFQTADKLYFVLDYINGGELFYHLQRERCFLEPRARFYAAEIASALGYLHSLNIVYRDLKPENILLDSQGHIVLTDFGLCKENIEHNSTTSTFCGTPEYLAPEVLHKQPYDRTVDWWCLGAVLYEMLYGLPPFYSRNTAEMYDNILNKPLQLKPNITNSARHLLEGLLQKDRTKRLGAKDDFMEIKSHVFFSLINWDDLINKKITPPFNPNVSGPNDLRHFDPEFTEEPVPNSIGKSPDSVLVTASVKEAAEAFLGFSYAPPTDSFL
Procedure: as §1, §2, §3, §4, §5

[3] = PK study in male ICR mice, intravenous and oral administration, plasma concentration; assay type: in vivo; conditions: for MRT inf: read-out: MRT(0-∞)
Source text: 3 Male mice/group, 8 groups total with Intravenous and Oral Administration, then measure the compound concentration in plasma.
Selected Pharmacokinetics Parameters of Compound N in Male ICR Mice Following Intravenous and Oral Administration

[4] = 50 μM ATP, read-out: Sgk2 (50 μM ATP)
[5] = 50 μM ATP, read-out: Sgk1 (50 μM ATP)
[6] = 1 mM ATP, read-out: Sgk2 (1 mM ATP)
[7] = 1 mM ATP, read-out: Sgk1 (1 mM ATP)

Row | SMILES | IC50 [1, 4] | IC50 [2, 5] | IC50 [1, 6] | IC50 [2, 7] | also measured
1 | COc1ccc(Cl)c(NS(=O)(=O)c2ccc(-c3ccc4c(N)n[nH]c4n3)cc2)c1 | 109 nM | > 2000 nM |  |  | 
2 | CCOc1cc(-c2ccc(NS(=O)(=O)c3cc(OC)ccc3F)cc2)nc2[nH]nc(N)c12 | 7.8 nM | 16.2 nM | 10.1 nM | 8.2 nM | 
3 | COc1ccc(F)c(S(=O)(=O)Nc2ccc(-c3cc4c5c(n[nH]c5c3)NC(=O)C(C)(C)O4)cc2)c1 | 35 nM | 77.6 nM | 323 nM | 344 nM | 
4 | COc1ccc(F)c(S(=O)(=O)Nc2ccc(-c3ccc4cn[nH]c4c3)nc2)c1 | 31.4 nM | 92.5 nM | 267 nM | 144 nM | 
5 | COc1ccc(F)c(S(=O)(=O)Nc2ccc(-c3cc(OC(C)C)c4c(N)n[nH]c4c3)cc2)c1 | 64 nM | 42.3 nM | 192 nM | 58.8 nM | 
6 | COc1ccc(F)c(S(=O)(=O)Nc2ccc(-c3cc(OC4CCOC4)c4c(N)n[nH]c4n3)cc2)c1 (stereo not shown) | 7.6 nM | 24.7 nM | 7.6 nM | 8.9 nM | 
7 | COc1ccc(F)c(S(=O)(=O)Nc2ccc(-c3cc(O[C@H]4CCOC4)c4c(N)n[nH]c4c3)cc2)c1 | 10.3 nM | 5.2 nM | 16.4 nM | 2.9 nM | 
8 | COc1ccc(F)c(S(=O)(=O)Nc2ccc(-c3cc(C)c4c(N)n[nH]c4c3)cc2)c1 | 8.4 nM | 21.5 nM | 71.5 nM | 49.9 nM | 
9 | COc1ccc(F)c(S(=O)(=O)Nc2cnc(-c3ccc4c(N)n[nH]c4c3)nc2)c1 | 3.7 nM | 14.1 nM | 7.5 nM | 62.2 nM | 
10 | COc1ccc(F)c(S(=O)(=O)Nc2ccc(-c3cc(OC)c4c(N)n[nH]c4c3)cn2)c1 | 7.2 nM | 29.7 nM | 29.7 nM | 133 nM | 
11 | COCCOc1cc(-c2ccc(NS(=O)(=O)c3cc(OC)ccc3F)cc2)nc2[nH]nc(N)c12 | 9.6 nM | 28.7 nM | 69.4 nM | 10.4 nM | 
12 | COCCOc1cc(-c2ccc(NS(=O)(=O)c3cc(OC)ccc3F)cn2)cc2[nH]nc(N)c12 | 4.5 nM | 40 nM | 33.2 nM | 15.3 nM | 
13 | CNCCOc1cc(-c2ccc(NS(=O)(=O)c3cc(OC)ccc3F)cc2)cc2[nH]nc(N)c12 | 6 nM | 17.7 nM | 38.8 nM | 11.3 nM | 
14 | COc1ccc(F)c(S(=O)(=O)Nc2ccc(-c3cc(OCCN(C)C)c4c(N)n[nH]c4n3)cc2)c1 | 4.2 nM | 45 nM | 40 nM | 187 nM | 
15 | COc1ccc(F)c(S(=O)(=O)Nc2ccc(-c3cc(OC4COC4)c4c(N)n[nH]c4c3)cc2)c1 | 4.4 nM | 8.6 nM | 6.5 nM | 3.8 nM | 
16 | COc1ccc(F)c(S(=O)(=O)Nc2ccc(-c3cc(O[C@@H]4CCOC4)c4c(N)n[nH]c4c3)cc2)c1 | 4.6 nM | 5.5 nM | 9.3 nM | 1.5 nM | 
17 | COc1ccc(F)c(S(=O)(=O)Nc2ccc(-c3cc(OC)c4c(N)n[nH]c4n3)cc2)c1 | 3 nM | 17.1 nM | 35.7 nM | 112 nM | 
18 | COc1ccc(F)c(S(=O)(=O)Nc2ccc(-c3ccc4c(N)n[nH]c4c3)nc2)c1 [Compound N, N-(6-(3-amino-1H-indazol-6-yl)pyridin-3-yl)-2-fluoro-5-methoxybenzenesulfonamide] |  |  |  |  | CLz ([3]; IV (2 mg/kg)): 0.17 mL/min/kg; t1/2z ([3]; IV (2 mg/kg)): 6.99 h; t1/2z ([3]; PO (20 mg/kg)): 17.27 h; F ([3]; PO (20 mg/kg), F is calculated from AUC(0-t)): 63.37%; AUC(0-inf) ([3]; mouse, plasma, IV (2 mg/kg)): 165 µg·h/mL; AUC(0-t) ([3]; mouse, plasma, IV (2 mg/kg)): 151 µg·h/mL; Cmax ([3]; mouse, plasma, IV (2 mg/kg)): 29.1 µg/mL; Tmax ([3]; mouse, plasma, IV (2 mg/kg)): 0.08 h; MRT inf ([3]; mouse, plasma, IV (2 mg/kg)): 8.84 h; Vd ([3]; mouse, plasma, IV (2 mg/kg), read-out: Vz): 0.12 L/kg; AUC(0-inf) ([3]; mouse, plasma, PO (20 mg/kg)): 1530 µg·h/mL; AUC(0-t) ([3]; mouse, plasma, PO (20 mg/kg)): 957 µg·h/mL; Cmax ([3]; mouse, plasma, PO (20 mg/kg)): 71.9 µg/mL; Tmax ([3]; mouse, plasma, PO (20 mg/kg)): 0.25 h; MRT inf ([3]; mouse, plasma, PO (20 mg/kg)): 24.1 h
19 | COc1ccc(F)c(S(=O)(=O)Nc2ccc(-c3ccc4c(N)n[nH]c4c3)nc2)c1 [drawing 151] | 4.6 nM | 25 nM | 20.8 nM | 158 nM | 

Row | SMILES | IC50 [1, 4] | IC50 [2, 5] | IC50 [1, 6] | IC50 [2, 7] | also measured
20 | COc1ccc(F)c(S(=O)(=O)Nc2cnc(-c3cc(OC)c4c(N)n[nH]c4c3)nc2)c1 | 5.4 nM | 17.9 nM | 4 nM | 27.3 nM | 
21 | COc1ccc(F)c(S(=O)(=O)Nc2ccc(-c3cc(O[C@@H]4CCOC4)c4c(N)n[nH]c4c3)nc2)c1 | 4 nM | 8.5 nM | 36 nM | 10.3 nM | 
22 | COc1ccc(F)c(S(=O)(=O)Nc2ccc(-c3cc4[nH]ncc4c(NCC4CNCCO4)n3)cc2)c1 (stereo not shown) | 5.3 nM | 8.1 nM | 3.5 nM | 4.2 nM | 
23 | COc1ccc(F)c(S(=O)(=O)Nc2ccc(-c3cc(OCC4CNCCO4)c4c(N)n[nH]c4c3)cc2)c1 (stereo not shown) | 2 nM | 2.3 nM | 3.8 nM | 3.9 nM | 
24 | COc1ccc(F)c(S(=O)(=O)Nc2ccc(-c3cc(OCC(C)(C)O)c4c(N)n[nH]c4c3)cc2)c1 | 38.3 nM | 36.1 nM | 39.3 nM |  | 
25 | COc1ccc(F)c(S(=O)(=O)Nc2ccc(-c3cc(O[C@H]4CCOC4)c4c(N)n[nH]c4c3)nc2)c1 | 14.6 nM | 109 nM | 17.8 nM | 181 nM | 
26 | COc1ccc(F)c(S(=O)(=O)Nc2ccc(-c3cc(OC)c4c(N)n[nH]c4c3)nc2)c1 | 5 nM | 13 nM | 6.5 nM | 11.1 nM | 
27 | CCOc1cc(-c2ccc(NS(=O)(=O)c3cc(OC)ccc3F)cn2)cc2[nH]nc(N)c12 | 75 nM | 14.1 nM | 19.8 nM | 110 nM | 
28 | COc1ccc(F)c(S(=O)(=O)Nc2ccc(-c3cnc4c(N)n[nH]c4c3)nc2)c1 | 27.8 nM | 141 nM | 134 nM | 208 nM | 
29 | COc1ccc(F)c(S(=O)(=O)Nc2ccc(-c3cc4[nH]ncc4c(OC)n3)cc2)c1 | 38.5 nM | 70.6 nM | 32.7 nM |  | 
30 | COc1ccc(F)c(S(=O)(=O)Nc2ccc(-c3cc(OCC4CNCCO4)c4cn[nH]c4n3)cc2)c1 (stereo not shown) | 3.5 nM | 3.4 nM | 9.8 nM | 10.7 nM | 
31 | COc1ccc(F)c(S(=O)(=O)Nc2ccc(-c3cc4c5c(n[nH]c5c3)NC(=O)CO4)cc2)c1 | 24.3 nM | 30.6 nM | 222 nM | 970 nM | 
32 | COc1ccc(F)c(S(=O)(=O)Nc2ccc(-c3cc(C)c4c(N)n[nH]c4c3)nc2)c1 | 5 nM | 10.1 nM | 7.9 nM | 9.2 nM | 
33 | COc1ccc(Cl)c(S(=O)(=O)Nc2ccc(-c3cc(OCC4CNCCO4)c4cn[nH]c4c3)cc2)c1 (stereo not shown) | 1.8 nM | 1.8 nM | 25.2 nM | 31.9 nM | 
34 | Cc1n[nH]c2nc(-c3ccc(NS(=O)(=O)c4cc(Cl)ccc4F)cc3)ccc12 | 5.9 nM | 12.1 nM |  |  | 
35 | COc1ccc(F)c(S(=O)(=O)Nc2ccc(-c3cc(OCCN(C)C)c4c(N)n[nH]c4c3)cc2)c1 | 9.1 nM | 27 nM | 104 nM | 20 nM | 
36 | Nc1n[nH]c2cc(-c3ccc(NS(=O)(=O)c4cccc(Cl)c4Cl)cn3)ccc12 | 17.1 nM | 150 nM | 13.4 nM | 542 nM | 
37 | COc1ccc(F)c(S(=O)(=O)Nc2ccc(-c3cc4c5c(n[nH]c5c3)NC(=O)CN4)cc2)c1 | 3.4 nM | 4.8 nM | 18.6 nM | 12.6 nM | 
38 | COc1ccc(F)c(S(=O)(=O)Nc2ccc(-c3cc4[nH]ncc4cn3)cc2)c1 | 9.7 nM | 160 nM | > 200 nM | > 200 nM | 
